Measured values from the supplement of paper PMC10307832.

Assays:
Assay in all cases: relative viability (nuclei count vs DMSO), 5 days (fraction); higher = more cells survive
NCI-H2126 = test system: NCI-H2126
Method in brief: (§1)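 Relative viability is defined as nuclei in treated wells over nuclei in vehicle wells. Duplicate plates were run and medians reported. Lung cancer cell lines in 1536-well plates were dosed by pin tool one day after seeding, with one drug or with a fixed anchor-drug dose plus five library-drug doses (not always all listed) in √10 steps, and nuclei were counted after 5 days.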

EPLC-272H = test system: EPLC-272H
Method in brief: as §1

EMC-BAC-2 = test system: EMC-BAC-2
Method in brief: as §1

NCI-H2170 = test system: NCI-H2170
Method in brief: as §1

NCI-H727 = test system: NCI-H727
Method in brief: as §1

NCI-H2009 = test system: NCI-H2009
Method in brief: as §1

NCI-H2023 = test system: NCI-H2023
Method in brief: as §1

NCI-H1437 = test system: NCI-H1437
Method in brief: as §1

ChaGo-K-1 = test system: ChaGo-K-1
Method in brief: as §1

NCI-H1793 = test system: NCI-H1793
Method in brief: as §1

NCI-H2405 = test system: NCI-H2405
Method in brief: as §1

SW 1573 = test system: SW 1573
Method in brief: as §1

NCI-H460 = test system: NCI-H460
Method in brief: as §1

NCI-H441 = test system: NCI-H441
Method in brief: as §1

HOP-62 = test system: HOP-62
Method in brief: as §1

NCI-H520 = test system: NCI-H520
Method in brief: as §1

SW 900 = test system: SW 900
Method in brief: as §1

LOU-NH91 = test system: LOU-NH91
Method in brief: as §1

NCI-H650 = test system: NCI-H650
Method in brief: as §1

NCI-H647 = test system: NCI-H647
Method in brief: as §1

NCI-H2347 = test system: NCI-H2347
Method in brief: as §1

HCC-44 = test system: HCC-44
Method in brief: as §1

COCC1(CO)C(=O)C2CCN1CC2 (stereo not drawn) [PRIMA-1MET] + O=C(c1cc(Cc2n[nH]c(=O)c3ccccc23)ccc1F)N1CCN(C(=O)C2CC2)CC1 [Olaparib] (partner 8 µM)
relative viability (NCI-H2126; first compound 0.2 µM): 0.908
relative viability (NCI-H2126; first compound 0.6325 µM): 0.861
relative viability (NCI-H2126; first compound 2 µM): 0.854
relative viability (NCI-H2126; first compound 6.325 µM): 0.972
relative viability (NCI-H2126; first compound 20 µM): 0.831
relative viability (EPLC-272H; first compound 0.2 µM): 0.655
relative viability (EPLC-272H; first compound 0.6325 µM): 0.89
relative viability (EPLC-272H; first compound 2 µM): 0.911
relative viability (EPLC-272H; first compound 6.325 µM): 0.694
relative viability (EPLC-272H; first compound 20 µM): 0.0737
relative viability (EMC-BAC-2; first compound 0.2 µM): 0.624
relative viability (EMC-BAC-2; first compound 0.6325 µM): 0.486
relative viability (EMC-BAC-2; first compound 6.325 µM): 0.499
relative viability (EMC-BAC-2; first compound 20 µM): 0.43
relative viability (NCI-H2170; first compound 0.2 µM): 0.608
relative viability (NCI-H2170; first compound 0.6325 µM): 0.539
relative viability (NCI-H2170; first compound 2 µM): 0.649
relative viability (NCI-H2170; first compound 6.325 µM): 0.684
relative viability (NCI-H2170; first compound 20 µM): 0.622
relative viability (NCI-H727; first compound 0.2 µM): 0.6
relative viability (NCI-H727; first compound 0.6325 µM): 0.676
relative viability (NCI-H727; first compound 6.325 µM): 0.527
relative viability (NCI-H727; first compound 20 µM): 0.47
relative viability (NCI-H2009; first compound 0.2 µM): 0.657
relative viability (NCI-H2009; first compound 0.6325 µM): 0.814
relative viability (NCI-H2009; first compound 2 µM): 0.709
relative viability (NCI-H2009; first compound 6.325 µM): 0.631
relative viability (NCI-H2009; first compound 20 µM): 0.202
relative viability (NCI-H2023; first compound 0.2 µM): 0.576
relative viability (NCI-H2023; first compound 0.6325 µM): 0.478
relative viability (NCI-H2023; first compound 2 µM): 0.489
relative viability (NCI-H2023; first compound 6.325 µM): 0.442
relative viability (NCI-H2023; first compound 20 µM): 0.29
relative viability (NCI-H1437; first compound 0.2 µM): 0.641
relative viability (NCI-H1437; first compound 0.6325 µM): 0.556
relative viability (NCI-H1437; first compound 2 µM): 0.627
relative viability (NCI-H1437; first compound 6.325 µM): 0.65
relative viability (NCI-H1437; first compound 20 µM): 0.614
relative viability (ChaGo-K-1; first compound 0.2 µM): 0.461
relative viability (ChaGo-K-1; first compound 0.6325 µM): 0.407
relative viability (ChaGo-K-1; first compound 2 µM): 0.437
relative viability (ChaGo-K-1; first compound 6.325 µM): 0.426
relative viability (ChaGo-K-1; first compound 20 µM): 0.318
relative viability (NCI-H1793; first compound 0.2 µM): 1.04
relative viability (NCI-H1793; first compound 0.6325 µM): 0.887
relative viability (NCI-H1793; first compound 6.325 µM): 0.843
relative viability (NCI-H1793; first compound 20 µM): 0.539
relative viability (NCI-H2405; first compound 0.2 µM): 0.947
relative viability (NCI-H2405; first compound 0.6325 µM): 0.986
relative viability (NCI-H2405; first compound 6.325 µM): 0.88
relative viability (NCI-H2405; first compound 20 µM): 0.167
relative viability (SW 1573; first compound 0.2 µM): 0.672
relative viability (SW 1573; first compound 2 µM): 0.388
relative viability (SW 1573; first compound 6.325 µM): 0.0574
relative viability (SW 1573; first compound 20 µM): 0.0284
relative viability (NCI-H460; first compound 0.2 µM): 0.532
relative viability (NCI-H460; first compound 0.6325 µM): 0.337
relative viability (NCI-H460; first compound 2 µM): 0.384
relative viability (NCI-H460; first compound 6.325 µM): 0.451
relative viability (NCI-H460; first compound 20 µM): 0.162
relative viability (NCI-H441; first compound 0.2 µM): 0.559
relative viability (NCI-H441; first compound 0.6325 µM): 0.674
relative viability (NCI-H441; first compound 2 µM): 0.615
relative viability (NCI-H441; first compound 6.325 µM): 0.505
relative viability (NCI-H441; first compound 20 µM): 0.407
relative viability (HOP-62; first compound 0.2 µM): 0.489
relative viability (HOP-62; first compound 0.6325 µM): 0.388
relative viability (HOP-62; first compound 2 µM): 0.51
relative viability (HOP-62; first compound 6.325 µM): 0.428
relative viability (HOP-62; first compound 20 µM): 0.0328
relative viability (NCI-H520; first compound 0.2 µM): 0.371
relative viability (NCI-H520; first compound 2 µM): 0.38
relative viability (NCI-H520; first compound 6.325 µM): 0.318
relative viability (NCI-H520; first compound 20 µM): 0.144
relative viability (SW 900; first compound 0.2 µM): 1.06
relative viability (SW 900; first compound 0.6325 µM): 0.888
relative viability (SW 900; first compound 6.325 µM): 0.882
relative viability (SW 900; first compound 20 µM): 0.0786
relative viability (LOU-NH91; first compound 0.2 µM): 1.02
relative viability (LOU-NH91; first compound 0.6325 µM): 0.911
relative viability (LOU-NH91; first compound 2 µM): 0.866
relative viability (LOU-NH91; first compound 6.325 µM): 0.978
relative viability (LOU-NH91; first compound 20 µM): 0.65
relative viability (NCI-H650; first compound 0.2 µM): 0.492
relative viability (NCI-H650; first compound 0.6325 µM): 0.453
relative viability (NCI-H650; first compound 2 µM): 0.339
relative viability (NCI-H650; first compound 6.325 µM): 0.368
relative viability (NCI-H650; first compound 20 µM): 0.187
relative viability (NCI-H647; first compound 0.2 µM): 0.461
relative viability (NCI-H647; first compound 0.6325 µM): 0.614
relative viability (NCI-H647; first compound 2 µM): 0.722
relative viability (NCI-H647; first compound 6.325 µM): 0.607
relative viability (NCI-H647; first compound 20 µM): 0.593
relative viability (NCI-H2347; first compound 0.2 µM): 0.641
relative viability (NCI-H2347; first compound 0.6325 µM): 0.517
relative viability (NCI-H2347; first compound 2 µM): 0.559
relative viability (NCI-H2347; first compound 6.325 µM): 0.624
relative viability (NCI-H2347; first compound 20 µM): 0.433
relative viability (HCC-44; first compound 0.2 µM): 1.06
relative viability (HCC-44; first compound 0.6325 µM): 0.969
relative viability (HCC-44; first compound 2 µM): 1.12
relative viability (HCC-44; first compound 6.325 µM): 0.969
relative viability (HCC-44; first compound 20 µM): 0.945
